Assay results from patent US20130303509A1, “NAMPT INHIBITORS” (AbbVie Inc., priority 2012, published 2013).
pIC50: −log10 of the molar value.

Test system: PC3 cells
Assay: NAMPT Cell Proliferation Assay
Assay type: cell-based
Conditions: Homo sapiens, PC-3, 120 h, 5 days incubation, cell viability by Cell Titer Glo
In short: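 Seeded at 500 cells/well in RPMI with 10% heat-inactivated FBS and left to attach overnight at 37° C, 5% CO2. Compounds were added as 10-fold dilutions […] for 5 days, then viability was read by CellTiter-Glo. IC50s came from sigmoidal fits of percent inhibition.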

CCCCCCC(=O)N1CCC(c2ccc(NC(=O)C3CN(c4cccnn4)C3)cc2)CC1 [Example 329, N-[4-(1-heptanoylpiperidin-4-yl)phenyl]-1-(pyridazin-3-yl)azetidine-3-carboxamide]
pIC50: 8.55

C=CCC(=O)N1CCC(c2ccc(NC(=O)C3CN(c4cccnn4)C3)cc2)CC1 [Example 330, N-{4-[1-(but-3-enoyl)piperidin-4-yl]phenyl}-1-(pyridazin-3-yl)azetidine-3-carboxamide]
pIC50: 8.86

C=CCCC(=O)N1CCC(c2ccc(NC(=O)C3CN(c4cccnn4)C3)cc2)CC1 [Example 331, N-{4-[1-(pent-4-enoyl)piperidin-4-yl]phenyl}-1-(pyridazin-3-yl)azetidine-3-carboxamide]
pIC50: 8.68

O=C(Nc1ccc(C2CCN(C(=O)CC(F)(F)F)CC2)cc1)C1CN(c2cccnn2)C1 [Example 332, 1-(pyridazin-3-yl)-N-{4-[1-(3,3,3-trifluoropropanoyl)piperidin-4-yl]phenyl}azetidine-3-carboxamide]
pIC50: 9.00

COCC(=O)N1CCC(c2ccc(NC(=O)C3CN(c4cccnn4)C3)cc2)CC1 [Example 333, N-{4-[1-(methoxyacetyl)piperidin-4-yl]phenyl}-1-(pyridazin-3-yl)azetidine-3-carboxamide]
pIC50: 8.25

CSCC(=O)N1CCC(c2ccc(NC(=O)C3CN(c4cccnn4)C3)cc2)CC1 [Example 334, N-(4-{1-[(methylsulfanyl)acetyl]piperidin-4-yl}phenyl)-1-(pyridazin-3-yl)azetidine-3-carboxamide]
pIC50: 9.01

COCCOCC(=O)N1CCC(c2ccc(NC(=O)C3CN(c4cccnn4)C3)cc2)CC1 [Example 335, N-(4-{1-[(2-methoxyethoxy)acetyl]piperidin-4-yl}phenyl)-1-(pyridazin-3-yl)azetidine-3-carboxamide]
pIC50: 8.22

O=C(Nc1ccc(C2CCN(C(=O)CC[N+](=O)[O-])CC2)cc1)C1CN(c2cccnn2)C1 [Example 336, N-{4-[1-(3-nitropropanoyl)piperidin-4-yl]phenyl}-1-(pyridazin-3-yl)azetidine-3-carboxamide]
pIC50: 8.08

CSCCC(=O)N1CCC(c2ccc(NC(=O)C3CN(c4cccnn4)C3)cc2)CC1 [Example 337, N-(4-{1-[3-(methylsulfanyl)propanoyl]piperidin-4-yl}phenyl)-1-(pyridazin-3-yl)azetidine-3-carboxamide]
pIC50: 8.16

C#CCCC(=O)N1CCC(c2ccc(NC(=O)C3CN(c4cccnn4)C3)cc2)CC1 [Example 338, N-{4-[1-(pent-4-ynoyl)piperidin-4-yl]phenyl}-1-(pyridazin-3-yl)azetidine-3-carboxamide]
pIC50: 8.95

O=C(Nc1ccc(C2CCN(C(=O)C3CCCCC3)CC2)cc1)C1CN(c2cccnn2)C1 [Example 339, N-{4-[1-(cyclohexylcarbonyl)piperidin-4-yl]phenyl}-1-(pyridazin-3-yl)azetidine-3-carboxamide]
pIC50: 8.74

O=C(Nc1ccc(C2CCN(C(=O)CC3CCCCC3)CC2)cc1)C1CN(c2cccnn2)C1 [Example 340, N-{4-[1-(cyclohexylacetyl)piperidin-4-yl]phenyl}-1-(pyridazin-3-yl)azetidine-3-carboxamide]
pIC50: 8.62

Cc1cccc(C(=O)N2CCC(c3ccc(NC(=O)C4CN(c5cccnn5)C4)cc3)CC2)c1 [Example 341, N-{4-[1-(3-methylbenzoyl)piperidin-4-yl]phenyl}-1-(pyridazin-3-yl)azetidine-3-carboxamide]
pIC50: 8.70

O=C(Nc1ccc(C2CCN(C(=O)c3ccccc3O)CC2)cc1)C1CN(c2cccnn2)C1 [Example 342, N-{4-[1-(2-hydroxybenzoyl)piperidin-4-yl]phenyl}-1-(pyridazin-3-yl)azetidine-3-carboxamide]
pIC50: 8.64

O=C(Nc1ccc(C2CCN(C(=O)c3cccc(O)c3)CC2)cc1)C1CN(c2cccnn2)C1 [Example 343, N-{4-[1-(3-hydroxybenzoyl)piperidin-4-yl]phenyl}-1-(pyridazin-3-yl)azetidine-3-carboxamide]
pIC50: 8.19

O=C(Nc1ccc(C2CCN(C(=O)c3ccc(O)cc3)CC2)cc1)C1CN(c2cccnn2)C1 [Example 344, N-{4-[1-(4-hydroxybenzoyl)piperidin-4-yl]phenyl}-1-(pyridazin-3-yl)azetidine-3-carboxamide]
pIC50: 8.05

COc1ccccc1C(=O)N1CCC(c2ccc(NC(=O)C3CN(c4cccnn4)C3)cc2)CC1 [Example 345, N-{4-[1-(2-methoxybenzoyl)piperidin-4-yl]phenyl}-1-(pyridazin-3-yl)azetidine-3-carboxamide]
pIC50: 8.70

COc1cccc(C(=O)N2CCC(c3ccc(NC(=O)C4CN(c5cccnn5)C4)cc3)CC2)c1 [Example 346, N-{4-[1-(3-methoxybenzoyl)piperidin-4-yl]phenyl}-1-(pyridazin-3-yl)azetidine-3-carboxamide]
pIC50: 8.42

COc1ccc(C(=O)N2CCC(c3ccc(NC(=O)C4CN(c5cccnn5)C4)cc3)CC2)cc1 [Example 347, N-{4-[1-(4-methoxybenzoyl)piperidin-4-yl]phenyl}-1-(pyridazin-3-yl)azetidine-3-carboxamide]
pIC50: 8.09

O=C(Nc1ccc(C2CCN(C(=O)c3cccc(F)c3)CC2)cc1)C1CN(c2cccnn2)C1 [Example 348, N-{4-[1-(3-fluorobenzoyl)piperidin-4-yl]phenyl}-1-(pyridazin-3-yl)azetidine-3-carboxamide]
pIC50: 8.70

O=C(Nc1ccc(C2CCN(C(=O)c3ccc(F)cc3)CC2)cc1)C1CN(c2cccnn2)C1 [Example 349, N-{4-[1-(4-fluorobenzoyl)piperidin-4-yl]phenyl}-1-(pyridazin-3-yl)azetidine-3-carboxamide]
pIC50: 8.14

O=C(Nc1ccc(C2CCN(C(=O)c3ccccc3Cl)CC2)cc1)C1CN(c2cccnn2)C1 [Example 350, N-{4-[1-(2-chlorobenzoyl)piperidin-4-yl]phenyl}-1-(pyridazin-3-yl)azetidine-3-carboxamide]
pIC50: 9.12

O=C(Nc1ccc(C2CCN(C(=O)c3cccc(Cl)c3)CC2)cc1)C1CN(c2cccnn2)C1 [Example 351, N-{4-[1-(3-chlorobenzoyl)piperidin-4-yl]phenyl}-1-(pyridazin-3-yl)azetidine-3-carboxamide]
pIC50: 8.63

N#Cc1cccc(C(=O)N2CCC(c3ccc(NC(=O)C4CN(c5cccnn5)C4)cc3)CC2)c1 [Example 352, N-{4-[1-(3-cyanobenzoyl)piperidin-4-yl]phenyl}-1-(pyridazin-3-yl)azetidine-3-carboxamide]
pIC50: 8.05

N#Cc1ccc(C(=O)N2CCC(c3ccc(NC(=O)C4CN(c5cccnn5)C4)cc3)CC2)cc1 [Example 353, N-{4-[1-(4-cyanobenzoyl)piperidin-4-yl]phenyl}-1-(pyridazin-3-yl)azetidine-3-carboxamide]
pIC50: 8.15

O=C(Nc1ccc(C2CCN(C(=O)c3cccc(C(F)(F)F)c3)CC2)cc1)C1CN(c2cccnn2)C1 [Example 354, 1-(pyridazin-3-yl)-N-(4-{1-[3-(trifluoromethyl)benzoyl]piperidin-4-yl}phenyl)azetidine-3-carboxamide]
pIC50: 8.12

O=C(Nc1ccc(C2CCN(C(=O)c3ccc(C(F)(F)F)cc3)CC2)cc1)C1CN(c2cccnn2)C1 [Example 355, 1-(pyridazin-3-yl)-N-(4-{1-[4-(trifluoromethyl)benzoyl]piperidin-4-yl}phenyl)azetidine-3-carboxamide]
pIC50: 8.01

O=C(Nc1ccc(C2CCN(C(=O)c3cccc(OC(F)(F)F)c3)CC2)cc1)C1CN(c2cccnn2)C1 [Example 356, 1-(pyridazin-3-yl)-N-(4-{1-[3-(trifluoromethoxy)benzoyl]piperidin-4-yl}phenyl)azetidine-3-carboxamide]
pIC50: 8.04

Cc1cccc(C(=O)N2CCC(c3ccc(NC(=O)C4CN(c5cccnn5)C4)cc3)CC2)c1C [Example 357, N-{4-[1-(2,3-dimethylbenzoyl)piperidin-4-yl]phenyl}-1-(pyridazin-3-yl)azetidine-3-carboxamide]
pIC50: 8.83

Cc1ccc(C(=O)N2CCC(c3ccc(NC(=O)C4CN(c5cccnn5)C4)cc3)CC2)c(C)c1 [Example 358, N-{4-[1-(2,4-dimethylbenzoyl)piperidin-4-yl]phenyl}-1-(pyridazin-3-yl)azetidine-3-carboxamide]
pIC50: 8.73

Cc1ccc(C)c(C(=O)N2CCC(c3ccc(NC(=O)C4CN(c5cccnn5)C4)cc3)CC2)c1 [Example 359, N-{4-[1-(2,5-dimethylbenzoyl)piperidin-4-yl]phenyl}-1-(pyridazin-3-yl)azetidine-3-carboxamide]
pIC50: 8.75

Cc1ccc(C(=O)N2CCC(c3ccc(NC(=O)C4CN(c5cccnn5)C4)cc3)CC2)cc1C [Example 360, N-{4-[1-(3,4-dimethylbenzoyl)piperidin-4-yl]phenyl}-1-(pyridazin-3-yl)azetidine-3-carboxamide]
pIC50: 8.63

Cc1cc(C)cc(C(=O)N2CCC(c3ccc(NC(=O)C4CN(c5cccnn5)C4)cc3)CC2)c1 [Example 361, N-{4-[1-(3,5-dimethylbenzoyl)piperidin-4-yl]phenyl}-1-(pyridazin-3-yl)azetidine-3-carboxamide]
pIC50: 8.56

O=C(Nc1ccc(C2CCN(C(=O)c3ccc(Cl)cc3Cl)CC2)cc1)C1CN(c2cccnn2)C1 [Example 362, N-{4-[1-(2,4-dichlorobenzoyl)piperidin-4-yl]phenyl}-1-(pyridazin-3-yl)azetidine-3-carboxamide]
pIC50: 8.58

O=C(Nc1ccc(C2CCN(C(=O)c3cc(Cl)ccc3Cl)CC2)cc1)C1CN(c2cccnn2)C1 [Example 363, N-{4-[1-(2,5-dichlorobenzoyl)piperidin-4-yl]phenyl}-1-(pyridazin-3-yl)azetidine-3-carboxamide]
pIC50: 8.25

O=C(Nc1ccc(C2CCN(C(=O)c3ccc(Cl)c(Cl)c3)CC2)cc1)C1CN(c2cccnn2)C1 [Example 364, N-{4-[1-(3,4-dichlorobenzoyl)piperidin-4-yl]phenyl}-1-(pyridazin-3-yl)azetidine-3-carboxamide]
pIC50: 8.06
